Data published in PMC11599716, “Trapping of spermine, Kukoamine A, and polyamine toxin blockers in GluK2 kainate receptor channels” (Nature Communications, 2024).
Read-outs that look alike come from different tables or passages of the source.

Legend:
[1] = biological target: T1, GluK2 kainate receptor (Rattus norvegicus, UniProt P42260, I567V/Y571C); assay: cryo-EM structures (four BPAM344 molecules per tetramer in all four structures)
T1 construct: gene Grik2; full-length rat GluK2 (GenBank CAA77778.1), V567, C571, Q621 (Q/R site unedited); LBD-TMD modelled (S429-R874); homotetramer

[2] = biological target: T2, GluK2 kainate receptor (Rattus norvegicus, UniProt P42260); assay: whole-cell patch clamp in HEK293 cells expressing GluK2 (agonist, with ConA treatment); assay type: cell-based
T2 construct: gene Grik2; full-length rat GluK2, Q621 (Q/R site unedited), homotetramer

[3] = biological target: T1, GluK2 kainate receptor; assay: cryo-EM structure ([…] Å, with BPAM344); IC50 from whole-cell patch clamp in HEK293 cells; assay type: cell-based
[4] = biological target: T1, GluK2 kainate receptor; assay: as above; assay type: cell-based; remark: listed apart in the source
[5] = biological target: T1, GluK2 kainate receptor; assay: as above; assay type: cell-based; remark: listed apart in the source
[6] = biological target: T1, GluK2 kainate receptor; assay: as above; assay type: cell-based; remark: listed apart in the source

T1 sequence (P42260 32-908 I567V/Y571C): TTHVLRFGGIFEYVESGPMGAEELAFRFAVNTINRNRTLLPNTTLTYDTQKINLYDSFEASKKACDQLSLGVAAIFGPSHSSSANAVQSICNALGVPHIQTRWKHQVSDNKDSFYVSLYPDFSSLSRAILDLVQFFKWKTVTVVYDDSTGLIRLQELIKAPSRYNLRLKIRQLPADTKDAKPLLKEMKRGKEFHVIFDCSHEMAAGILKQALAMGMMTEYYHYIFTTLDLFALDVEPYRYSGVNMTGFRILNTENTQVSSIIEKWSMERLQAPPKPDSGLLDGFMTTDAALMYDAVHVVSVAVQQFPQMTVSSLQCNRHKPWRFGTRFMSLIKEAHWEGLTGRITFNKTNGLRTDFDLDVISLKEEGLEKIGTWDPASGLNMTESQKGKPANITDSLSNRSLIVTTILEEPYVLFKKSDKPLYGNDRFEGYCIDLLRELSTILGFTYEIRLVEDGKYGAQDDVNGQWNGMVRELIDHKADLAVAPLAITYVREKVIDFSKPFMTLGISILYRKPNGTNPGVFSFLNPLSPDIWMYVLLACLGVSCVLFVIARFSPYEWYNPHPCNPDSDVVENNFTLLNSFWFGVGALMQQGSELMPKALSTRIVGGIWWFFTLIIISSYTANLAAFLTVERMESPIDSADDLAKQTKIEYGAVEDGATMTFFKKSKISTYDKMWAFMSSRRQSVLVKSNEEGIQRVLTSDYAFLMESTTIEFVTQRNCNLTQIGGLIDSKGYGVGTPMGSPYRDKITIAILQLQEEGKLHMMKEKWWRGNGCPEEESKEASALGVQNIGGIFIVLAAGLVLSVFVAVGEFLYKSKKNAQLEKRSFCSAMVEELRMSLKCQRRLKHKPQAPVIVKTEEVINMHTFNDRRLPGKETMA
T2 sequence (P42260 32-908): as the sequence (P42260 32-908 I567V/Y571C) above, with V536I, C540Y counted along it

Compound: O=S1(=O)NCN(C2CC2)c2ccc(F)cc21 [BPAM, BPAM344]
- cryo-EM structures (four BPAM344 molecules per tetramer in all four structures) [1]: improved map quality, with well-resolved densities for BPAM, carbohydrates, and annular lipids

Compound: C=C(C)[C@H]1CN[C@H](C(=O)O)[C@H]1CC(=O)O [KA, kainic acid]
- whole-cell patch clamp in HEK293 cells expressing GluK2 (agonist, with ConA trea) [2]: the agonist kainic acid (KA) elicited large inward currents with a steady-state value of IControl

Compound: O=C(CCc1ccc(O)c(O)c1)NCCCNCCCCNCCCNC(=O)CCc1ccc(O)c(O)c1 [KukoA, Kukoamine A]
- IC50 [3]: 704 ± 31 µM

Compound: NCCCNCCCCNCCC(=O)NCCCCCNC(=O)[C@@H](CC(N)=O)NC(=O)Cc1c[nH]c2ccccc12 [NpTx-8]
- IC50 [4]: 0.51 ± 0.01 µM

Compound: CCCC(=O)N[C@H](Cc1ccc(O)cc1)C(=O)NCCCCCCCNCCCCN [PhTx-74]
- IC50 [5]: 7.53 ± 0.35 µM

Compound: NCCCNCCCCNCCCN [SPM, spermine]
- IC50 [6]: 7770 ± 510 µM
